Results on two molecules are retold here after ChEMBL document CHEMBL1140847, “Spectroscopic and calorimetric studies on the DNA recognition of pyrrolo[2,1-c][1,4]benzodiazepine hybrids” (Bioorg Med Chem, 2009).

Active and inactive are the calls of the source. The calls are words filed in the database; no cut-off is given here.

The ΔTm is the shift of the melting midpoint relative to a reference.

The nature of test [1]: Binding affinity to oligonucleotide duplex DNA D1 at drug-duplex molar ratio of 2:1 assessed as change in melting temperature by UV melting experiment.
Test [2] can be described thus: Binding affinity to oligonucleotide duplex DNA D2a at drug-duplex molar ratio of 2:1 assessed as change in melting temperature by UV melting experiment.
Test [3] in a line: Binding affinity to oligonucleotide duplex DNA D2b at drug-duplex molar ratio of 2:1 assessed as change in melting temperature by UV melting experiment.
The nature of test [4]: Binding affinity to oligonucleotide duplex DNA D2c at drug-duplex molar ratio of 2:1 assessed as change in melting temperature by UV melting experiment.
A short description of test [5]: Binding affinity to oligonucleotide duplex DNA D2e at drug-duplex molar ratio of 2:1 assessed as change in melting temperature by UV melting experiment.
Test [6] in a line: Binding affinity to oligonucleotide duplex DNA D3 at drug-duplex molar ratio of 2:1 assessed as change in melting temperature by UV melting experiment.
Test [7] can be described thus: Binding affinity to oligonucleotide duplex DNA D4 at drug-duplex molar ratio of 2:1 assessed as change in melting temperature by UV melting experiment.
Test [8] in a line: Binding affinity to oligonucleotide duplex DNA D5 at drug-duplex molar ratio of 2:1 assessed as change in melting temperature by UV melting experiment.
The nature of test [9]: Binding affinity to oligonucleotide duplex DNA D6 at drug-duplex molar ratio of 2:1 assessed as change in melting temperature by UV melting experiment.
Test [10] can be described thus: Binding affinity to oligonucleotide duplex DNA D7 at drug-duplex molar ratio of 2:1 assessed as change in melting temperature by UV melting experiment.
A short description of test [11]: Binding affinity to oligonucleotide duplex DNA D8 at drug-duplex molar ratio of 2:1 assessed as change in melting temperature by UV melting experiment.
Test [12] can be described thus: Binding affinity to oligonucleotide duplex DNA D2a at 6.6 uM by circular dichroism. (In general: CD spectra are sensitive to the conformation of chiral molecules.)
Test [13] is described as follows: Binding affinity to oligonucleotide hairpin duplex DNA D2d at 26 uM by UV titration experiment.
Test [14] is described as follows: Binding affinity to oligonucleotide hairpin duplex DNA D2d by fluorescence titration experiment.
Test [15] in a line: Binding affinity to oligonucleotide hairpin duplex DNA D2d by isothermal titration calorimetry. (In ITC the heat of successive injections is recorded.)
Test [16] is described as follows: Binding affinity to oligonucleotide duplex DNA D2a at 10 uM by circular dichroism.

For the molecule `COc1cc2c(cc1OCCCN1CCN(CCN3C(=O)c4cccc5cccc(c45)C3=O)CC1)N=C[C@@H]1CCCN1C2=O`, the ΔTm in test [1] stood at 9 °C; in test [2] it was 34 °C; in [3], 34.3 °C; in test [4] it was 6.5 °C; in [5], 35 °C; in test [6], 39.5 °C. The ΔTm in test [7] came to 36.8 °C; in test [8] it was 30.3 °C; in test [9], 37.3 °C; in test [10], 31.5 °C; in [11], 35 °C. For the same molecule, the outcome in test [12] and in test [13] was Active. The Ka in [14] came out at 3.8 ×10⁶ /M; in test [15] it was 7.8 ×10⁵ /M.
As to `COc1cc2c(cc1OCCCOc1ccc(-c3nc4ccc(N5CCN(C)CC5)cc4[nH]3)cc1)N=C[C@@H]1CCCN1C2=O`, the ΔTm in test [1] amounted to 10 °C; in [2], 33 °C; in test [3], 39 °C; in test [4], 9 °C; in test [5], 37 °C; in test [7] it was 34.3 °C. For the same molecule, the ΔTm was determined as 32.5 °C in [8], 34.5 °C in test [9], 27 °C in test [10] and 0 °C in test [11]. Also, the result in test [16] and in test [13] was Active. The figures for the Ka in test [14] and in test [15] were 5.6 ×10⁶ /M and 8.9 ×10⁵ /M, respectively.
